From patent publication US6337317B1, “Antimicrobial peptides and methods of use thereof” (priority 2000, dated 2002) come the findings set out here.

Where a SMILES comes first, the peptide text is derived from it.

The nature of data set [1]: LPS-induced endotoxemia in galactosamine-sensitized mice. The data set is classed as in vivo. Conditions: 200 μg peptide intraperitoneally, groups of 10 mice, up to 24 h. How it is done:
Bacterial endotoxin (LPS) is highly toxic and can cause high mortality in both humans and animals when released during Gram-negative bacterial infection. Galactosamine-treated mice exposed to moderate does of endotoxin typically die from endotoxic shock within 17 hours following exposure. Invention peptides can be tested for their ability to protect mice against endotoxin-induced death (see Examples section). The anti-endotoxic activity of invention peptides also can be tested in an in vitro assay using a macrophage cell line (Gough et al. (1996) Infect. Immun. 64:4922-4927; and Examples section).
The ability of invention peptides to protect against LPS-induced endotoxemia was assessed in vivo. Mice (8-10 weeks old) were injected intraperitoneally with […] D-galactosamine (Dgal) to sensitize them to LPS according to the method of Galanos (Galanos et al. (1979) Proc. Natl. Acad. Sci., USA, 76:5939-5943). Endotoxic shock was induces by intraperitoneal injections of 3 μg/mL E. coli 111 :B4 LPS in phosphate-buffered saline (PBS). Invention peptides (200 μg/100 μl sterile water) were injected intraperitoneally at a separate site within 10 min of LPS injection, and survival was monitored up to 24 h following injection.

The subject of data set [2] is E. coli 0111:B4 LPS induced production of TNF-α in RAW macrophages. Briefly: Reduction of LPS-induced TNF-α in RAW 264.7 macrophages (ELISA). The data set is classed as cell-based, murine. Conditions: for Inhibition of TNF-α (%): peptide 20 μg/ml, LPS 100 ng/ml, RAW 264.7, 6 hours. How it is done: (§1) The ability of invention peptides to reduce LPS-induced tumor necrosis factor (TNF) production was tested in an in vitro assay. The murine macrophage cell line RAW 264.7 was obtained from American Type Culture Collection (Manassas, Va.) and grown in DMEM medium supplemented with 10% fetal calf serum. The cells were plated at a density of 10^6 cells/well in 24 well plates, incubated overnight, then washed with fresh medium. E. coli 0111 :B4 (100 ng/ml) was added at time 0 to RAW macrophages. Invention peptides […]/m were added at time 0, 30 and 60 minutes and the cells were stimulated for 6 hours. Levels of TNF and interleukin-6 (IL-6) were measured after 6 hours.
(An ELISA detects its analyte on a solid surface through an enzyme-linked reagent.)

The subject of data set [3] is E. coli 0111:B4 LPS induced production of IL-6 in RAW macrophages. Kind of data set: Reduction of LPS-induced IL-6 in RAW 264.7 macrophages (ELISA). The data set is classed as cell-based, murine. To be noted: for Inhibition of IL-6 (%): peptide 20 μg/ml, LPS 100 ng/ml, RAW 264.7, 6 hours. How it is done: as §1
Another data set has as its system P. aeruginosa M2. Briefly: P. aeruginosa infection in neutropenic mouse model. The data set is classed as in vivo. Conditions: neutropenic CD-1 mice; for Mean Time to Death: 200 μg peptide intraperitoneally 30 min after infection; for Survival (%), P. aeruginosa infection: 200 μg peptide intraperitoneally, groups of 5 mice, assessed 24 to 72 hours. How it is done:
Invention peptides were assayed for their ability to protect against P. aeruginosa infection in a neutropenic mouse mode. Female CD-1 mice, made neutropenic by three injections of cyclophosphamide (see Gough et al., (1996) Infect. Immun. 64:4922-4927) were injected intraperitoneally with a 100% lethal dose of P. aeruginosa M2 (approximately 200 organisms). Thirty minutes later, mice were injected intraperitoneally with invention peptides (200 μg/100 μl) Survival was assessed 24 to 72 hours later.

Data set [4] in a line: Dansyl polymyxin B displacement assay (binding affinity for LPS). To be noted: for Imax: maximal displacement, 100% = that observed with polymyxin B; for IC50: peptide concentration reducing bound dansyl polymyxin B (10 μM) by 50% of maximal displacement, read-out: I50. Also on record: species or system Escherichia coli. As to the method: To determine whether invention peptides are able to interact with the LPS of Gram-negative bacterial outer membrane, the binding affinity of peptide for LPS was determined using a dansyl polymyxin B displacement assay (Moore et al. (1986) Antimicrobial Agents Chemother. 29:496-500). The assay uses dansyl polymyxin, a cationic probe that is highly fluorescent only when bound and LPS isolated from E. coli. UB1005. […] Maximal displacement of LPS was expressed as a percentage where 100% displacement of dansyl polymyxin B was taken as that observed with polymyxin B.

Data set [5] relates to intact cells of E. coli UB1005. Briefly: NPN uptake assay, outer membrane permeabilization. The data set is classed as cell-based, Escherichia coli. To be noted: peptide concentration leading to 50% of maximal increase in NPN uptake. How it is done: The outer membrane permeabilization activity of invention peptides was determined by the 1-N-phenylnapthylamine (NPN) uptake assay of Loh et al. ((1984) Antimicor. Agents Chemother. 26:546-551), using intact cells of E. coli UB1005.
(§2) The cytoplasmic membrane depolarization activity of the peptides was determined (Wu and Hancock (1999) J. Biol. Chem. 274:29-35) using the membrane potential sensitive dye 3,3-dipropylthiacarbocyanine diSC35 (28) and E. coli DC2. Bacterial cells in mid-log phase were centrifuged, washed in 5 mM HEPES, pH 7.8, and resuspended in the same buffer to an OD600 of 0.05. A stock solution of diSC35 was added to a final concentration of 0.4 μM and quenching was allowed to occur at room temperature for 20-30 min. Then KCl was added to the cell suspension to a final concentration of 100 mM to equilibrate the cytoplasmic and external K^+ concentrations. A 2-mL cell suspension was placed in a 1 cm cuvette and the desired concentration of tested peptide was added. Changes in fluorescence due to the disruption of the membrane potential in the cytoplasmic membrane were continuously recorded using a Perkin-Elmer model 650-10S spectrofluorimeter at an excitation wavelength of 622 nm and an emission wavelength of 670 nm. The concentration of peptide leading to a 50% of maximal increase in NPN uptake was recorded as the P50.
Therefore, an increase in fluorescence in the presence of a peptide indicates the ability of peptide to permeabilize the bacterial outer membrane.

Another data set has as its system Human Red Blood Cells. Briefly: Hemolytic assay. The data set is classed as cell-based. Conditions: red blood cells. As to the method:
The toxicity of invention peptides can be assessed using a hemolytic assay in which the ability of the peptides to lyse human red blood cells is assessed (Zhang et al. (1999) Biochemistry 38:8102-8111; and Examples section).
Hemolytic activity of invention peptides was tested against human red blood cells. Freshly collected human blood treated with heparin was centrifuged to remove the buffy coat, and the erythrocytes thereby obtained were washed three times in saline (0.85% NaCl). Serial dilutions of the peptides in saline were prepared in round-bottomed microtiter plates using total volumes of 100 μl. Red blood cells were diluted with saline to 1/25 of a packed cell volume, and 50 μl of cells were added to each well. Plates, while rocking, were incubated at 37° C., and the concentration of the peptide required for lysis after 4 h was taken as the minimal hemolytic concentration.

A further data set concerns E. coli DC2. Kind of data set: Cytoplasmic membrane depolarization, diSC35 assay. To be noted: 0.25 μg/ml (1×MIC). Type of data set: cell-based, Escherichia coli. As to the method: The arrowhead indicates the time at which 0.25 μg/ml peptide was added. PV5: SEQ ID NO:11; PV7: SEQ ID NO:4; and PV8: SEQ ID NO:3.
as §2

Regarding `CC(C)[C@@H]1NC(=O)[C@H](CCCNC(=N)N)NC(=O)[C@H](Cc2ccccc2)NC(=O)[C@@H](NC(=O)[C@H](Cc2c[nH]c3ccccc23)NC(=O)[C@H](CCCNC(=N)N)NC(=O)[C@@H](N)CCCNC(=N)N)CSSC[C@@H](C(=O)N[C@@H](CCCNC(=N)N)C(N)=O)NC(=O)[C@H](CCCCN)NC(=O)[C@H](Cc2ccc(O)cc2)NC(=O)[C@H](CCCNC(=N)N)NC(=O)[C@@H]2CSSC[C@H](NC1=O)C(=O)N[C@@H](Cc1ccc(O)cc1)C(=O)N[C@@H](CCCCN)C(=O)NCC(=O)N[C@@H](Cc1ccccc1)C(=O)N2` [SEQ ID NO:4, RRWCFRVCYKGFCRYKCR] (HELM PEPTIDE1{R.R.W.C.F.R.V.C.Y.K.G.F.C.R.Y.K.C.R.[am]}$PEPTIDE1,PEPTIDE1,4:R3-17:R3|PEPTIDE1,PEPTIDE1,8:R3-13:R3$$$V2.0), in data set [1], the “Survival (%), LPS-Endotoxemia” value is listed as 40%. Moreover, the “Inhibition of TNF-α (%)” value in data set [2] is given as 61 ± 5%. Further, the “Inhibition of IL-6 (%)” value in data set [3] is reported as 77 ± 6%. For the same molecule, in the data set on P. aeruginosa M2, the “Mean Time to Death” value is given as 61 h and the “Survival (%), P. aeruginosa infection” value is listed as 40%. In data set [4], the Imax is 76% and the IC50 worked out at 5.7 µM. In addition, the P50 in data set [5] is 4.1 µg/mL. Besides, in the data set on Human Red Blood Cells, the “hemolytic activity” value is “show hemolytic activity”.

In the case of Polymyxin B [reference compound], in data set [4], the Imax stood at 100% and the IC50 was 5.6 µM.

In the case of `CC(C)[C@@H]1NC(=O)[C@H](CCCNC(=N)N)NC(=O)[C@H](Cc2ccccc2)NC(=O)[C@@H](NC(=O)[C@H](Cc2c[nH]c3ccccc23)NC(=O)[C@H](CCCNC(=N)N)NC(=O)[C@@H](N)Cc2ccccc2)CSSC[C@@H](C(=O)N[C@@H](CCCNC(=N)N)C(N)=O)NC(=O)[C@H](CCCCN)NC(=O)[C@H](Cc2ccc(O)cc2)NC(=O)[C@H](CCCNC(=N)N)NC(=O)[C@@H]2CSSC[C@H](NC1=O)C(=O)N[C@@H](Cc1ccc(O)cc1)C(=O)N[C@@H](CCCCN)C(=O)NCC(=O)N[C@@H](CCCNC(=N)N)C(=O)N2` [SEQ ID NO:3, FRWCFRVCYKGRCRYKCR] (HELM PEPTIDE1{F.R.W.C.F.R.V.C.Y.K.G.R.C.R.Y.K.C.R.[am]}$PEPTIDE1,PEPTIDE1,4:R3-17:R3|PEPTIDE1,PEPTIDE1,8:R3-13:R3$$$V2.0), in data set [1], the “Survival (%), LPS-Endotoxemia” value was 20%. Also, in data set [2], the “Inhibition of TNF-α (%)” value was determined as 55 ± 5%. The “Inhibition of IL-6 (%)” value in data set [3] turned out to be 70 ± 6%. Moreover, in the data set with P. aeruginosa M2, the “Mean Time to Death” value is reported as more than 72 h and the “Survival (%), P. aeruginosa infection” value stood at 60%. For the same molecule, in data set [4], the Imax stood at 93% and the IC50 stood at 4.9 µM. Also, the P50 in data set [5] came to 3.9 µg/mL. Besides, in the data set with Human Red Blood Cells, the “hemolytic activity” value was “show hemolytic activity”.

For `CC(C)[C@@H]1NC(=O)[C@H](CCCNC(=N)N)NC(=O)[C@H](Cc2ccccc2)NC(=O)[C@@H](NC(=O)[C@H](Cc2c[nH]c3ccccc23)NC(=O)[C@H](CCCNC(=N)N)NC(=O)[C@@H](N)CCCNC(=N)N)CSSC[C@@H](C(=O)N[C@@H](CCCNC(=N)N)C(N)=O)NC(=O)[C@H](CCCCN)NC(=O)[C@H](CCCNC(=N)N)NC(=O)[C@H](Cc2ccc(O)cc2)NC(=O)[C@@H]2CSSC[C@H](NC1=O)C(=O)N[C@@H](Cc1ccc(O)cc1)C(=O)N[C@@H](CCCNC(=N)N)C(=O)NCC(=O)N[C@@H](CCCNC(=N)N)C(=O)N[C@@H](Cc1ccccc1)C(=O)N2` [SEQ ID NO:11, RRWCFRVCYRGRFCYRKCR] (HELM PEPTIDE1{R.R.W.C.F.R.V.C.Y.R.G.R.F.C.Y.R.K.C.R.[am]}$PEPTIDE1,PEPTIDE1,4:R3-18:R3|PEPTIDE1,PEPTIDE1,8:R3-14:R3$$$V2.0), the “Survival (%), LPS-Endotoxemia” value in data set [1] is 50%. In data set [2] (20 μg/ml), the “inhibition of TNF-α production” value was “best inhibitor”. Also, the “Inhibition of TNF-α (%)” value in data set [2] worked out at 90 ± 6%. The “inhibition of IL-6 production” value in data set [3] (20 μg/ml) is listed as “best inhibitor”. The “Inhibition of IL-6 (%)” value in data set [3] is 91 ± 4%. The “diSC35 dye release from cells” value in the data set with E. coli DC2 was “unable to cause a significant level of dye release”. For the same molecule, in the data set with P. aeruginosa M2, the “Mean Time to Death” value was determined as 57 h and the “Survival (%), P. aeruginosa infection” value turned out to be 40%. In addition, in data set [4], the Imax stood at 87% and the IC50 was determined as 3 µM. This molecule gave a P50 in data set [5] of 3.7 µg/mL. Moreover, the “hemolytic activity” value with Human Red Blood Cells is “show hemolytic activity”.
